According to patent publication US12655116B2, “Substituted isophthalic acid diamides” (Bayer Aktiengesellschaft, priority 2020, dated 2026):

What was measured:
POLCO = test: Post-emergence herbicidal action against POLCO; type: in vivo, Polygonum convolvulus; conditions: Fallopia convolvulus, 504 h, dosage 80 g/ha
How it was run: (§1)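 A WP or EC formulation diluted in water with 0.2% wetting agent was sprayed at 600 to 800 l/ha onto one-leaf-stage plants grown in sandy loam. About 3 weeks later, action was rated visually in percent, 100% being dead plants.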

STEME [1] = test: Post-emergence herbicidal action against STEME; type: in vivo, Stellaria media; conditions: Stellaria media, 504 h
How it was run: as §1

HORMU [2] = test: Post-emergence herbicidal action against HORMU; type: in vivo, Hordeum murinum; conditions: Hordeum murinum, 504 h
How it was run: as §1

LOLRI [3] = test: Post-emergence herbicidal action against LOLRI; type: in vivo, Lolium rigidum; conditions: Lolium rigidum, 504 h; for pest or weed control at 20 g/ha: dosage 20 g/ha
How it was run: as §1

VERPE [4] = test: Pre-emergence herbicidal action against VERPE; type: in vivo, Veronica persica; conditions: Veronica persica, 504 h; for pest or weed control at 80 g/ha: dosage 80 g/ha
How it was run: (§2)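 Greenhouse pots of sandy loam held seeds covered with soil, onto which the compound was applied before emergence. An aqueous suspension or emulsion of WP or EC was used at 600 to 800 l/ha with 0.2% wetting agent. Percent damage was judged visually at 3 weeks.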

ABUTH = test: Pre-emergence herbicidal action against ABUTH; type: in vivo, Abutilon theophrasti; conditions: Abutilon theophrasti, 504 h; for pest or weed control at 80 g/ha: scored visually after 3 weeks vs untreated controls (100% = plants have died, 0% = like control plants)
How it was run: as §2

SETVI = test: Pre-emergence herbicidal action against SETVI; type: in vivo, Setaria viridis; conditions: Setaria viridis, 504 h; for pest or weed control at 80 g/ha: dosage 80 g/ha
How it was run: as §2

ECHCG [5] = test: Pre-emergence herbicidal action against ECHCG; type: in vivo, Echinochloa crus-galli; conditions: Echinochloa crus-galli, 504 h
How it was run: as §2

AMARE [6] = test: Post-emergence herbicidal action against AMARE; type: in vivo, Amaranthus retroflexus; conditions: Amaranthus retroflexus, 504 h, visual assessment about 3 weeks after treatment, 100% = plants have died, 0% = like control plants
How it was run: as §1

VIOTR [7] = test: Post-emergence herbicidal action against VIOTR; type: in vivo, Viola tricolor; conditions: Viola tricolor, 504 h
How it was run: as §1

AMARE [8] = test: Pre-emergence herbicidal action against AMARE; type: in vivo, Amaranthus retroflexus; conditions: Amaranthus retroflexus, 504 h, 100% = plants have died, 0% = like control plants
How it was run: as §2

LOLRI [9] = test: Pre-emergence herbicidal action against LOLRI; type: in vivo, Lolium rigidum; conditions: Lolium rigidum, 504 h
How it was run: as §2

VIOTR [10] = test: Pre-emergence herbicidal action against VIOTR; type: in vivo, Viola tricolor; conditions: Viola tricolor, 504 h; for pest or weed control at 80 g/ha: dosage 80 g/ha
How it was run: as §2

AVEFA [11] = test: Post-emergence herbicidal action against AVEFA; type: in vivo, Avena fatua; conditions: Avena fatua, 504 h, visual assessment about 3 weeks after treatment, 100% = plants have died, 0% = like control plants
How it was run: as §1

MATIN [12] = test: Post-emergence herbicidal action against MATIN; type: in vivo, Matricaria inodora; conditions: Tripleurospermum inodorum, 504 h; for pest or weed control at 20 g/ha: dosage 20 g/ha
How it was run: as §1

STEME [13] = test: Pre-emergence herbicidal action against STEME; type: in vivo, Stellaria media; conditions: Stellaria media, 504 h; for pest or weed control at 80 g/ha: dosage 80 g/ha
How it was run: as §2

MATIN [14] = test: Pre-emergence herbicidal action against MATIN; type: in vivo, Matricaria inodora; conditions: Tripleurospermum inodorum, 504 h; for pest or weed control at 80 g/ha: dosage 80 g/ha
How it was run: as §2

ALOMY = test: Pre-emergence herbicidal action against ALOMY; type: in vivo, Alopecurus myosuroides; conditions: Alopecurus myosuroides, 504 h, pre-emergence; for pest or weed control at 80 g/ha: scored visually after 3 weeks vs untreated controls (100% = plants have died, 0% = like control plants)
How it was run: as §2

AVEFA [15] = test: Pre-emergence herbicidal action against AVEFA; type: in vivo, Avena fatua; conditions: Avena fatua, 504 h, pre-emergence
How it was run: as §2

ECHCG [16] = test: Post-emergence herbicidal action against ECHCG; type: in vivo, Echinochloa crus-galli; conditions: Echinochloa crus-galli, 504 h; for pest or weed control at 20 g/ha: dosage 20 g/ha
How it was run: as §1

VERPE [17] = test: Post-emergence herbicidal action against VERPE; type: in vivo, Veronica persica; conditions: Veronica persica, 504 h
How it was run: as §1

HORMU [18] = test: Pre-emergence herbicidal action against HORMU; type: in vivo, Hordeum murinum; conditions: Hordeum murinum, 504 h, pre-emergence
How it was run: as §2

PHBPU = test: Post-emergence herbicidal action against PHBPU; type: in vivo, Pharbitis purpurea; conditions: Ipomoea purpurea, 504 h, dosage 20 g/ha
How it was run: as §1

[19] = scored visually after 3 weeks vs untreated controls
[20] = 320 g/ha, scored visually after 3 weeks, 100% = plants have died, 0% = like control plants

Structure (SMILES): CCNC(=O)c1c(C(F)F)ccc(C(=O)Nc2nnnn2C)c1Cl [Example 1-148]
- pest or weed control at 80 g/ha (POLCO): 80%
- pest or weed control at 20 g/ha (STEME [1]): 90%
- pest or weed control at 80 g/ha (STEME [1]; 80 g/ha): 90%
- pest or weed control at 80 g/ha (HORMU [2]; dosage 80 g/ha): 90%
- pest or weed control at 20 g/ha (LOLRI [3]): 80%
- pest or weed control at 80 g/ha (LOLRI [3]; dosage 80 g/ha): 90%
- pest or weed control at 80 g/ha (VERPE [4]): 80%
- pest or weed control at 320 g/ha (VERPE [4]; dosage 320 g/ha): 100%
- pest or weed control at 80 g/ha (ABUTH): 100%
- pest or weed control at 320 g/ha (ABUTH; Dosage: 320 g/ha, scored visually after 3 weeks, 100% = plants have died, 0% = like control plants): 100%
- pest or weed control at 80 g/ha (SETVI): 100%
- pest or weed control at 320 g/ha (SETVI; dosage 320 g/ha): 100%
- pest or weed control at 80 g/ha (ECHCG [5]): 100%
- pest or weed control at 320 g/ha (ECHCG [5]; 320 g/ha): 100%
- pest or weed control at 20 g/ha (AMARE [6]): 90%
- pest or weed control at 80 g/ha (AMARE [6]; 80 g/ha): 90%
- pest or weed control at 20 g/ha (VIOTR [7]): 80%
- pest or weed control at 80 g/ha (VIOTR [7]; 80 g/ha): 90%
- pest or weed control at 80 g/ha (AMARE [8]; [19]): 100%
- pest or weed control at 320 g/ha (AMARE [8]; 320 g/ha, scored visually after 3 weeks): 100%
- pest or weed control at 320 g/ha (LOLRI [9]; 320 g/ha): 90%
- pest or weed control at 80 g/ha (VIOTR [10]): 100%
- pest or weed control at 320 g/ha (VIOTR [10]; dosage 320 g/ha): 100%
- pest or weed control at 20 g/ha (AVEFA [11]): 100%
- pest or weed control at 80 g/ha (AVEFA [11]; 80 g/ha): 100%
- pest or weed control at 20 g/ha (MATIN [12]): 100%
- pest or weed control at 80 g/ha (MATIN [12]; dosage 80 g/ha): 100%
- pest or weed control at 80 g/ha (STEME [13]): 100%
- pest or weed control at 320 g/ha (STEME [13]; dosage 320 g/ha): 100%
- pest or weed control at 80 g/ha (MATIN [14]): 100%
- pest or weed control at 320 g/ha (MATIN [14]; dosage 320 g/ha): 100%
- pest or weed control at 80 g/ha (ALOMY): 90%
- pest or weed control at 320 g/ha (ALOMY; [20]): 100%
- pest or weed control at 80 g/ha (AVEFA [15]): 100%
- pest or weed control at 320 g/ha (AVEFA [15]; [20]): 100%
- pest or weed control at 20 g/ha (ECHCG [16]): 80%
- pest or weed control at 80 g/ha (ECHCG [16]; dosage 80 g/ha): 80%
- pest or weed control at 20 g/ha (VERPE [17]): 80%
- pest or weed control at 80 g/ha (VERPE [17]; 80 g/ha): 80%
- pest or weed control at 80 g/ha (HORMU [18]): 90%
- pest or weed control at 320 g/ha (HORMU [18]; 320 g/ha): 100%

Structure (SMILES): CCn1nnnc1NC(=O)c1ccc(C(F)(F)F)c(C(=O)NC2CC2)c1C [Example 2-27]
- pest or weed control at 20 g/ha (STEME [1]): 100%
- pest or weed control at 5 g/ha (STEME [1]; dosage 5 g/ha): 100%
- pest or weed control at 20 g/ha (HORMU [2]; dosage 20 g/ha): 90%
- pest or weed control at 20 g/ha (PHBPU): 90%
- pest or weed control at 20 g/ha (LOLRI [3]): 80%
- pest or weed control at 20 g/ha (VERPE [4]; dosage 20 g/ha): 80%
- pest or weed control at 80 g/ha (VERPE [4]): 100%
- pest or weed control at 80 g/ha (ABUTH): 100%
- pest or weed control at 20 g/ha (ABUTH; dosage 20 g/ha, scored visually after 3 weeks vs untreated controls, 100% = plants have died, 0% = like control plants, read-out: Pre-emergence action against ABUTH (herbicidal activity in percent)): 100%
- pest or weed control at 80 g/ha (SETVI): 100%
- pest or weed control at 20 g/ha (ECHCG [5]; 20 g/ha): 90%
- pest or weed control at 80 g/ha (ECHCG [5]): 100%
- pest or weed control at 20 g/ha (AMARE [6]): 100%
- pest or weed control at 5 g/ha (VIOTR [7]; 5 g/ha): 100%
- pest or weed control at 20 g/ha (VIOTR [7]): 100%
- pest or weed control at 20 g/ha (AMARE [8]; 20 g/ha, scored visually after 3 weeks vs untreated controls): 100%
- pest or weed control at 80 g/ha (AMARE [8]; [19]): 100%
- pest or weed control at 80 g/ha (LOLRI [9]; 80 g/ha): 80%
- pest or weed control at 20 g/ha (VIOTR [10]; dosage 20 g/ha): 100%
- pest or weed control at 80 g/ha (VIOTR [10]): 100%
- pest or weed control at 5 g/ha (AVEFA [11]; 5 g/ha): 90%
- pest or weed control at 20 g/ha (AVEFA [11]): 100%
- pest or weed control at 5 g/ha (MATIN [12]; dosage 5 g/ha): 100%
- pest or weed control at 20 g/ha (MATIN [12]): 100%
- pest or weed control at 20 g/ha (STEME [13]; dosage 20 g/ha): 100%
- pest or weed control at 80 g/ha (STEME [13]): 100%
- pest or weed control at 20 g/ha (MATIN [14]; dosage 20 g/ha): 100%
- pest or weed control at 80 g/ha (MATIN [14]): 100%
- pest or weed control at 80 g/ha (ALOMY): 100%
- pest or weed control at 80 g/ha (AVEFA [15]): 100%
- pest or weed control at 20 g/ha (AVEFA [15]; 20 g/ha, scored visually after 3 weeks, 100% = plants have died, 0% = like control plants): 80%
- pest or weed control at 5 g/ha (ECHCG [16]; dosage 5 g/ha): 80%
- pest or weed control at 20 g/ha (ECHCG [16]): 100%
- pest or weed control at 20 g/ha (VERPE [17]): 80%
- pest or weed control at 80 g/ha (HORMU [18]): 90%
